In patent US20220074923A1, “METHODS OF IDENTIFYING PARKIN-MEDIATED MITOPHAGY ACTIVATING AGENTS” (THE GOVERNING COUNCIL OF THE UNIVERSITY OF TORONTO, priority 2018, published 2022):

Columns and labels:
S2R+ cells = experiment: mitoSOX mitochondrial superoxide staining; format: cell-based; conditions: toxin alone
Method: A) Staining was performed with mitoSOX Red Mitochondrial Superoxide dye. B) Quantification of the fluorescence intensity of the mitoSOX probe in the indicated treatments (n=3). Data is presented as mean±s.e.m. P-values were determined by paired student's t-test, *P-value<0.05.
Whether SR3677 may protect against paraquat-induced phenotypes by interfering with paraquat's activity was also assessed. Paraquat gives rise to mitochondrial superoxide species that can be detected using mitoSOX, a fluorescent probe that is targeted to mitochondria, where it may be oxidized by superoxides. The oxidized mitoSOX species fluoresces upon encountering nucleic acid. The fluorescence intensity of Schneider's S2-R^+ cells, a cell line derived from dissociated embryos with a flat morphology amenable to imaging, was assessed following treatments with paraquat or paraquat and SR3677.

HEK293 GFP Parkin cells [1] = experiment: High throughput small molecule screen for Parkin recruitment to mitochondria (high content imaging); format: cell-based; conditions: for rank in the kinase inhibitor library screen (rank order by z-score): 4 μM, 16 h, then CCCP 2 h, rank out of 480, low rank = activator of Parkin recruitment, high rank = inhibitor
Method: 10 uL of 0.1 mg/mL Poly-D-Lys solution was added to 384-well plates for 5 minutes, followed by a PBS wash. Plates were dried for at least 2 hours. 50 μL of 600 000 HEK293 GFP Parkin cell/mL of DMEM was dispensed into each well. After 24 hours incubation to allow the cells to adhere, 200 nL of small molecules (or DMSO in columns 1, 2, 23 and 24) were pinned. Following a 16-hour incubation, 200 nL of 5 mM CCCP were added to all wells except columns 1 and 2, into which 200 nL of DMSO was added. Following 2-hour incubation, cells were fixed with 4% paraformaldehyde (PFA) and stained with 50 μL of 1 μg/mL DAPI solution for 15 minutes. After the final PBS wash, plates were ready for high content microscopy.
Images were acquired on IN Cell Analyzer 6000 (GE Healthcare), equipped with sCMOS camera (2048×2048), and 20x/0.45 NA Plan Fluor objective (Nikon) in open aperture mode using 1×1 binning. Image analysis was performed using Columbus Image Analysis System (PerkinElmer). Nuclei were initially detected in DAPI channel, followed by whole cell segmentation in GFP channel. Using PhenoLOGIC machine learning plug-in, cells were split into 2 sub-populations: cells with even GFP-Parkin distribution and cells where GFP-Parkin was localized to mitochondria. The percentage of cells with mitochondrial GFP-Parkin was determined per well. The molecules were then rank ordered based on z-score, which is calculated using the formula: […]
where x is the percentage of cells with mitochondrial GFP-Parkin for a specific small molecule, μ is the average percentage of cells with mitochondrial Parkin in positive control columns 23 and 24, where cells are treated with CCCP only.
These cell lines were screened across 2 biological replicates with compounds from the kinase inhibitor (n=480) and Prestwick (n=1120) collections. The 3-day screening protocol consisted of (1) seeding cells, (2) pinning small molecules at 4 μM concentration and (3) inducing mitophagy with CCCP, followed by processing of plates for high content imaging. Following image acquisition, DAPI staining was used to segment cells within each image. Supervised machine learning was used to classify cells into two classes: (1) cells with cytosolic Parkin distribution and (2) those with Parkin localized to mitochondria. […] Compounds which increased the proportion of class 2 cells across 2 biological replicates, compared to the CCCP-only treated cells (FIG. 10), as indicated by their z-score (FIG. 11), were considered hits.

HEK293 GFP Parkin cells [2] = experiment: Parkin recruitment assay; format: cell-based
Method: HEK293 GFP Parkin cells were seeded into 12-well plates containing coverslips. Cells were treated with small molecules for 2 hours prior to mitophagy induction with 10 μM CCCP, unless indicated otherwise. Following fixation with 4% PFA, immunostaining was carried out using anti-ATP5A primary antibody and anti-mouse Alex Fluor 568.
To measure the percentage of cells with Parkin localized to mitochondria a 2 step process was employed: (1) whole cell segmentation based on GFP Parkin using CellProfiler software and (2) classification into Parkin distribution subpopulation using CellProfiler Analyst. The percentage of cells with Parkin localized to mitochondria was determined in each image. Images were taken at 20× magnification for this experiment, resulting in the classification of at least 300 cells in each treatment group per trial.

HEK293 GFP Parkin cells [3] = experiment: Immunoblotting of mitochondrial protein degradation after CCCP; format: cell-based; conditions: 10 μM CCCP
Method: (a) HEK293 GFP Parkin cells were treated with varying doses of SR3677 for 2 hours prior to induction of mitophagy with 10 μM CCCP for one hour. The percentage of cells with mitochondrial Parkin increased in a dose-dependent manner. […] Cell lysates were harvested, proteins were separated by SDS-PAGE and immunoblotting was performed with anti-Mfn2 and anti-actin antibodies. (c) Ponceau VDAC1 levels in each sample normalized to Ponceau staining. (d) Mfn2/actin levels in CCCP treated cells. (e) Densitometry analysis was performed to quantify Mfn2 and VDAC1 levels in each sample (n=4 independent experiments).
HEK293 GFP Parkin cells co-treated with 0.5 μM SR3677 or DMSO and 10 μM CCCP for the indicated time (hours). Cell lysates were separated by SDS-PAGE and immunoblotting was performed to assess turnover of IMM/matrix substrates (A) ATP5A, (B) UQCRC2 and (C) COXIV. Densitometry analysis was performed. Protein levels were normalized to Ponceau. Data is expressed as mean±s.e.m (n=6, 7 and 8 for a, b and c, respectively. 4) P-values were determined by paired student's t-test, *P<0.05.
Lysates were harvested using lysis buffer (0.1M Tris HCl, 0.01% SDS, pH 9) with 1× protease inhibitor cocktail (BioShop, PIC002.1). Lysates were then heated at 95° C. for 20 minutes with vortexing performed at 5-minute intervals. The BCA assay (Pierce, 23227) was performed to determine protein concentration, to standardize protein loading across samples to be compared. 12% SDS-PAGE gels were used to run samples to be analyzed for LC3 conversation and for Tom20 and 10% gels were run for all other samples. Transfer of proteins onto PVDF membrane (Immobilon, IPVH00010) was performed at 110V for 80 minutes or at 36V for 8 hours. Membranes were blocked with 5% skim milk in TBST (1×TBS, 0.1% Tween-20 [BioShop, 1M23298]) for 30 minutes prior to incubation in primary antibodies at a dilution of 1:1000 for all antibodies except anti-ROCK2 and anti-LC3, which were used at a dilution of 1:5000. Visualization of proteins was performed using ECL (BioRad, 11705062).
Densitometry was performed by normalizing bands corresponding to the protein of interest to a loading control such as actin using ImageLab 6.0 software (BioRad).

ROCK2 = ROCK2 (Homo sapiens, UniProt O75116); conditions: biochemical and cell-based assays, previous studies; cited from earlier work
[4] = cited from earlier work
[5] = system: differentiated SH-SY5Y cells; experiment: Cell viability determination (ATP levels normalized to protein); format: cell-based; conditions: 500 μM, 24 hours
Method: SH-SY5Y cells were differentiated according to previously established protocol consisting of sequential treatment with retinoic acid followed by brain-derived neurotrophic factor^10. Cells were then seeded into white 96-well plates with white bottom and allowed to adhere overnight. Varying doses of SR3677 were combined with 500 μM paraquat and administered for 24 hours. Controls treated with 0.5 μM SR3677, equivalent volume DMSO and paraquat alone were also included. Following 24-hour incubation, cell media was aspirated and THE lysis buffer (50 mM Tris-HCl, 100 mM NaCl, 0.1 mM EDTA) containing protease inhibitor cocktail was added to each well. Half of the lysate volume was removed and aliquoted into a separate 96-well plate. ATP levels were measured in the opaque plate using the ATP determination (ThermoFisher A22066) assay kit and protein concentrations were measured using the Pierce BCA (ThermoFisher #23225) assay kit. ATP levels were normalized to protein concentration and then by the ratio for cells treated with paraquat alone in a control well on each plate.

Canton(S) flies = format: in vivo, Drosophila; conditions: 10 mM paraquat in food
Method: Fresh vials containing standard fly food supplemented with the indicated treatments were changed out every 2 days. The number of flies surviving each day was counted and log-rank tests were performed to determine statistical significance. […] The number of flies to climb beyond 9.5 cm every 10 seconds was assessed. The percentage of flies in each treatment to cross this line was determined. The climbing ability of each treatment was normalized to the control group treated with water only. […] Log-rank tests were performed to determine p-values for survival analyses (a, b, g), *P<0.05. P-values were determined by one-tailed paired student's t-test for all climbing assays (c-e, h), *P<0.05. Data is expressed as mean±s.e.m. All error bars represent s.e.m
Drosophila aged 7 days are fed food supplemented with either water (control), 1 mM SR3677, 10 mM paraquat or SR3677 in combination with paraquat. The survival of flies was recorded each day following administration of the treatments and climbing abilities were tested every 2 days by performing negative geotaxis assays.

Drosophila = format: in vivo; conditions: Canton(S), 10 mM paraquat
Method: Fresh vials containing standard fly food supplemented with the indicated treatments were changed out every 2 days. The number of flies surviving each day was counted and log-rank tests were performed to determine statistical significance. 20 flies per treatment, n=5 (c) The climbing ability of flies treated as described in (a and bin) was assessed 4 days following initial administration of treatments. The number of flies to climb beyond 9.5 cm every 10 seconds was assessed. The percentage of flies in each treatment to cross this line was determined. The climbing ability of each treatment was normalized to the control group treated with water only. 20 flies per treatment, n=5. (d) The climbing ability of UAS-park^RNAi and ddc-GAL4>UAS-park^RNAi flies fed either paraquat or paraquat in combination with SR3677. 20 flies per treatment, n=7. (e) Proteins lysates from UAS-park^RNAi or tubulin>UAS-park^RNAi whole flies were separated by SDS-PAGE. Immunoblotting with anti-Parkin and anti-actin antibody was performed. (f) The climbing ability of TH-GAL flies fed either paraquat or paraquat in combination with SR3677. (g) Survival of heteroplasmic mt:Coll^T300l flies fed fly food supplemented with water or 2 mM SR3677 and wild-type Canton(S) flies (n=3 independent experiments). (h) The climbing ability of heteroplasmic mt:Coll^T300l flies fed either water or 2 mM SR3677 for 7 days. Log-rank tests were performed to determine p-values for survival analyses (a, b, g), *P<0.05. P-values were determined by one-tailed paired student's t-test for all climbing assays (c-e, h), *P<0.05. Data is expressed as mean±s.e.m. All error bars represent s.e.m
Male Canton(S) Drosophila were aged 7 days prior to feeding with standard fly food supplemented with water, 10 mM paraquat, 1 mM SR3677, or with combinations of these chemicals. Flies were placed into new vials containing fresh food supplemented with the treatments previously administered and 2 days later, climbing assays were performed. Flies were placed into plastic cylinder vials and tapped down, so all flies fell to the bottom. The number of flies to climb beyond 12.5 cm was counted every 10 s and values are represented as the percentage of total flies in each treatment group.

Chain of ROCK2 (O75116 whole entry): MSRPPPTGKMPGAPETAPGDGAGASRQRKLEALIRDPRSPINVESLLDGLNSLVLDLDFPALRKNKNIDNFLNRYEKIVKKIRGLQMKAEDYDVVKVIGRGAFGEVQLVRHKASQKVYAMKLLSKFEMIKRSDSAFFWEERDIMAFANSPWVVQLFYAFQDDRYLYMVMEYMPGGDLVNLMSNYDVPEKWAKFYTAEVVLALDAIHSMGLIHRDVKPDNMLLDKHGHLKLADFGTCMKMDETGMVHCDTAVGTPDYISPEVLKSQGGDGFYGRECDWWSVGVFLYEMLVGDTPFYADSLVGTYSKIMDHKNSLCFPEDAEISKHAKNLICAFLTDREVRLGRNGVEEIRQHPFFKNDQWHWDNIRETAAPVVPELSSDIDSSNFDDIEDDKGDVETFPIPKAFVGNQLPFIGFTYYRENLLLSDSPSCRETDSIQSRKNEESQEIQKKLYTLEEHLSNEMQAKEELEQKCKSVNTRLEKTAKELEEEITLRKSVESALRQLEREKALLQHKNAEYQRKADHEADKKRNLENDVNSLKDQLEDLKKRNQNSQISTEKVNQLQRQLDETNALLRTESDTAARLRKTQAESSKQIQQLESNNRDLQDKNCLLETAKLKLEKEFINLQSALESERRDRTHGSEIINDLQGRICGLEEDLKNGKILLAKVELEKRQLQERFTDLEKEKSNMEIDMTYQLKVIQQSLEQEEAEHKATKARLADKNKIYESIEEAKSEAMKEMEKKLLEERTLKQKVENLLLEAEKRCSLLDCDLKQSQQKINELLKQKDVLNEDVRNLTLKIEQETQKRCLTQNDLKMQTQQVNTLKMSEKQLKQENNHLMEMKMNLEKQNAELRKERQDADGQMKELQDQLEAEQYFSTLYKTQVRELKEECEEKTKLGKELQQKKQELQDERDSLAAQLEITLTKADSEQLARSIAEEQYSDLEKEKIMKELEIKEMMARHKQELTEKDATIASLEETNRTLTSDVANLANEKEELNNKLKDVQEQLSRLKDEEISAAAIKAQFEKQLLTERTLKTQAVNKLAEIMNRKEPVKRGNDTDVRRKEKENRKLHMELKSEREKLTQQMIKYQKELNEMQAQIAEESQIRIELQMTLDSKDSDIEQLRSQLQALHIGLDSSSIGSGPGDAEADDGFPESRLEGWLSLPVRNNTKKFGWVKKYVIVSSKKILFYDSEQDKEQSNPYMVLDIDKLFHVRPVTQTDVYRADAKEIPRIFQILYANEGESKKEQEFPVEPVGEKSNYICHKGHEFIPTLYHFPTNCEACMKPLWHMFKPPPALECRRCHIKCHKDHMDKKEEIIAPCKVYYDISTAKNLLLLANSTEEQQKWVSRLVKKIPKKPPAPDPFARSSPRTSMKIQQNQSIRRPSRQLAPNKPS

## CC(C)(C)OO [luperox]
S2R+ cells
  fluorescence intensity of mitoSOX: increases the fluorescence intensity of mitoSOX

## Cc1cnc(Nc2ccc(OCCN3CCCC3)cc2)nc1Nc1cccc(S(=O)(=O)NC(C)(C)C)c1 [TG-101348]
HEK293 GFP Parkin cells [1]
  rank in the kinase inhibitor library screen (rank order by z-score): 418/480

## NC(=O)Nc1cc(-c2cccc(F)c2)sc1C(=O)N[C@H]1CCCNC1 [AZD-7762]
HEK293 GFP Parkin cells [1]
  rank in the kinase inhibitor library screen (rank order by z-score): 413/480

## NC(=O)c1ccc2nc(-c3ccc(Oc4ccc(Cl)cc4)cc3)[nH]c2c1 [Chk2 inhibitor II]
HEK293 GFP Parkin cells [1]
  rank in the kinase inhibitor library screen (rank order by z-score): 402/480

## O=c1[nH]c2ccc(Cl)cc2c(N[C@@H]2CN3CCC2CC3)c1-c1nc2ccccc2[nH]1 [CHIR-124]
HEK293 GFP Parkin cells [1]
  rank in the kinase inhibitor library screen (rank order by z-score): 403/480

## O=C(Nc1ccncc1)Nc1c(Cl)cc(Cl)cc1Cl [rho kinase inhibitor II]
HEK293 GFP Parkin cells [1]; ROCK inhibitors, 4 μM plus CCCP
  class in the screen (FIG. 1b): Enhancers of Parkin recruitment

## C[C@@H](N)c1ccc(C(=O)Nc2ccnc3[nH]ccc23)cc1 [Y39983]
HEK293 GFP Parkin cells [1]
  rank in the kinase inhibitor library screen (rank order by z-score): 5/480
HEK293 GFP Parkin cells [2]; 10 μM, 2-hour treatment, CCCP
  Parkin recruitment on re-test: recapitulated the effects observed following overnight incubation
HEK293 GFP Parkin cells [2]; compound alone
  Parkin distribution in the absence of CCCP: diffuse
HEK293 GFP Parkin cells [3]
  concentration administered to enhance Mfn2 degradation: 10 µM
HEK293 GFP Parkin cells [3]; 2 h pre-treatment, Y39983 10 μM, SR3677 0.5 μM
  Mfn2 degradation following CCCP: Increased degradation of Mfn2
ROCK2
  ROCK2 inhibition: sufficiently inhibit both ROCK1 and ROCK2
[4]
  cell permeability: poor cell permeability

## CN[C@@H]1C[C@H]2O[C@@](C)([C@@H]1OC)n1c3ccccc3c3c4c(c5c6ccccc6n2c5c31)C(=O)NC4 [Staurosporine]
HEK293 GFP Parkin cells [1]; known activator of Parkin-mediated mitophagy
  position among hits of the screen: ≤ 0.3%

## C[n+]1ccc(-c2cc[n+](C)cc2)cc1 [Paraquat]
[5]
  cell viability, paraquat alone: reduced the viability of cells
Canton(S) flies
  survival of flies, paraquat alone: reduced
Drosophila
  climbing ability, paraquat alone: impairs the climbing ability of flies over time
S2R+ cells
  fluorescence intensity of mitoSOX: increases the fluorescence intensity of mitoSOX
